Measured values as given in PubChem BioAssay AID1963963 (Molecular Pharmacology Branch, DTP, NCI, 2024).

System: 958667-338-R-J2-PDC tumor spheroids viability
Experiment: Anticancer human tumor 958667-338-R-J2-PDC patient-derived colon adenocarcinoma cell line growth inhibition [PI3K]
Details: spheroids with HUVEC and MSC; for IC50: curve of first compound; for viability, T/C: stronger effect = lower value
How it was run: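 Multi-cell spheroids combine tumor cells with HUVEC and human MSCs, treated with targeted agents alone or with inavolisib, alpelisib, duvelisib or copanlisib. Concentrations fall in half-log steps from at or near clinical Cmax, or from 10 microM where Cmax is unknown; viability read-out.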

[1] = second compound 0.0316 µM, first compound 0.0316 µM
[2] = second compound 0.0316 µM, first compound 0.1 µM
[3] = second compound 0.0316 µM, first compound 0.316 µM
[4] = second compound 0.0316 µM, first compound 1 µM
[5] = second compound 0.0316 µM, first compound 3.16 µM
[6] = second compound 0.0316 µM, first compound 10 µM
[7] = second compound 0.1 µM, first compound 0.0316 µM
[8] = second compound 0.1 µM, first compound 0.1 µM
[9] = second compound 0.1 µM, first compound 0.316 µM
[10] = second compound 0.1 µM, first compound 1 µM
[11] = second compound 0.1 µM, first compound 3.16 µM
[12] = second compound 0.1 µM, first compound 10 µM
[13] = second compound 0.316 µM, first compound 0.0316 µM
[14] = second compound 0.316 µM, first compound 0.1 µM
[15] = second compound 0.316 µM, first compound 0.316 µM
[16] = second compound 0.316 µM, first compound 1 µM
[17] = second compound 0.316 µM, first compound 3.16 µM
[18] = second compound 0.316 µM, first compound 10 µM
[19] = second compound 1 µM, first compound 0.0316 µM
[20] = second compound 1 µM, first compound 0.1 µM
[21] = second compound 1 µM, first compound 0.316 µM
[22] = second compound 1 µM, first compound 1 µM
[23] = second compound 1 µM, first compound 3.16 µM
[24] = second compound 1 µM, first compound 10 µM
[25] = second compound 3.16 µM, first compound 0.0316 µM
[26] = second compound 3.16 µM, first compound 0.1 µM
[27] = second compound 3.16 µM, first compound 0.316 µM
[28] = second compound 3.16 µM, first compound 1 µM
[29] = second compound 3.16 µM, first compound 3.16 µM
[30] = second compound 3.16 µM, first compound 10 µM
[31] = second compound 10 µM, first compound 0.0316 µM
[32] = second compound 10 µM, first compound 0.1 µM
[33] = second compound 10 µM, first compound 0.316 µM
[34] = second compound 10 µM, first compound 1 µM
[35] = second compound 10 µM, first compound 3.16 µM
[36] = second compound 10 µM, first compound 10 µM
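Also: spheroids exposed to compounds for seven days before readout.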

## C#Cc1c(F)ccc2cc(O)cc(-c3ncc4c(N5CC6CCC(C5)N6)nc(OCC56CCCN5CC(F)C6)nc4c3F)c12 (stereo not given) + Cc1nc(NC(=O)N2CCCC2C(N)=O)sc1-c1ccnc(C(C)(C)C(F)(F)F)c1
Second compound 0.0316 µM
  IC50: > 10 µM
Second compound 0.1 µM
  IC50: > 10 µM
Second compound 0.316 µM
  IC50: > 10 µM
Second compound 1 µM
  IC50: 4.15 µM
Second compound 3.16 µM
  IC50: 1.79 µM
Second compound 10 µM
  IC50: 0.368 µM
[1]
  viability, T/C: 82.9%
[2]
  viability, T/C: 83.3%
[3]
  viability, T/C: 79.5%
[4]
  viability, T/C: 95.8%
[5]
  viability, T/C: 67.7%
[6]
  viability, T/C: 70.6%
[7]
  viability, T/C: 70.9%
[8]
  viability, T/C: 79.6%
[9]
  viability, T/C: 93.5%
[10]
  viability, T/C: 87.1%
[11]
  viability, T/C: 76.8%
[12]
  viability, T/C: 57.3%
[13]
  viability, T/C: 93.9%
[14]
  viability, T/C: 109%
[15]
  viability, T/C: 69%
[16]
  viability, T/C: 56.2%
[17]
  viability, T/C: 82.1%
[18]
  viability, T/C: 52.5%
[19]
  viability, T/C: 82.8%
[20]
  viability, T/C: 82.6%
[21]
  viability, T/C: 67.3%
[22]
  viability, T/C: 65.7%
[23]
  viability, T/C: 52%
[24]
  viability, T/C: 41.4%
[25]
  viability, T/C: 72.1%
[26]
  viability, T/C: 59.9%
[27]
  viability, T/C: 75.2%
[28]
  viability, T/C: 50.2%
[29]
  viability, T/C: 46.1%
[30]
  viability, T/C: 29.4%
[31]
  viability, T/C: 60.1%
[32]
  viability, T/C: 47.5%
[33]
  viability, T/C: 43.9%
[34]
  viability, T/C: 49.6%
[35]
  viability, T/C: 34.1%
[36]
  viability, T/C: 1.14%

## C=CC(=O)N1CCN(c2nc(=O)n(-c3c(C)ccnc3C(C)C)c3nc(-c4c(O)cccc4F)c(F)cc23)C(C)C1 (stereo not given) + Cc1nc(NC(=O)N2CCCC2C(N)=O)sc1-c1ccnc(C(C)(C)C(F)(F)F)c1
Second compound 0.0316 µM
  IC50: > 10 µM
Second compound 0.1 µM
  IC50: > 10 µM
Second compound 0.316 µM
  IC50: > 10 µM
Second compound 1 µM
  IC50: > 10 µM
Second compound 3.16 µM
  IC50: > 10 µM
Second compound 10 µM
  IC50: > 10 µM
[1]
  viability, T/C: 94.5%
[2]
  viability, T/C: 100%
[3]
  viability, T/C: 96.8%
[4]
  viability, T/C: 114%
[5]
  viability, T/C: 126%
[6]
  viability, T/C: 112%
[7]
  viability, T/C: 94.8%
[8]
  viability, T/C: 111%
[9]
  viability, T/C: 96.6%
[10]
  viability, T/C: 110%
[11]
  viability, T/C: 129%
[12]
  viability, T/C: 107%
[13]
  viability, T/C: 97.9%
[14]
  viability, T/C: 86.9%
[15]
  viability, T/C: 94.7%
[16]
  viability, T/C: 113%
[17]
  viability, T/C: 94.7%
[18]
  viability, T/C: 84.7%
[19]
  viability, T/C: 94%
[20]
  viability, T/C: 76.7%
[21]
  viability, T/C: 107%
[22]
  viability, T/C: 83%
[23]
  viability, T/C: 88.5%
[24]
  viability, T/C: 85.2%
[25]
  viability, T/C: 80.4%
[26]
  viability, T/C: 73.5%
[27]
  viability, T/C: 68.6%
[28]
  viability, T/C: 73.3%
[29]
  viability, T/C: 93.5%
[30]
  viability, T/C: 82.2%
[31]
  viability, T/C: 69.1%
[32]
  viability, T/C: 60.5%
[33]
  viability, T/C: 48.8%
[34]
  viability, T/C: 63.5%
[35]
  viability, T/C: 65.8%
[36]
  viability, T/C: 68.9%

## CC(Cn1ccc(-c2ccc(C#N)c(Cl)c2)n1)NC(=O)c1cc(C(C)O)[nH]n1 (stereo not given) + Cc1nc(NC(=O)N2CCCC2C(N)=O)sc1-c1ccnc(C(C)(C)C(F)(F)F)c1
Second compound 0.0316 µM
  IC50: > 10 µM
Second compound 0.1 µM
  IC50: > 10 µM
Second compound 0.316 µM
  IC50: > 10 µM
Second compound 1 µM
  IC50: > 10 µM
Second compound 3.16 µM
  IC50: > 10 µM
Second compound 10 µM
  IC50: > 10 µM
[1]
  viability, T/C: 78.8%
[2]
  viability, T/C: 98.7%
[3]
  viability, T/C: 84.2%
[4]
  viability, T/C: 114%
[5]
  viability, T/C: 102%
[6]
  viability, T/C: 107%
[7]
  viability, T/C: 86.8%
[8]
  viability, T/C: 92.8%
[9]
  viability, T/C: 97.9%
[10]
  viability, T/C: 81.9%
[11]
  viability, T/C: 91.9%
[12]
  viability, T/C: 74.8%
[13]
  viability, T/C: 106%
[14]
  viability, T/C: 87.8%
[15]
  viability, T/C: 90.8%
[16]
  viability, T/C: 94.5%
[17]
  viability, T/C: 86.3%
[18]
  viability, T/C: 92.3%
[19]
  viability, T/C: 62.9%
[20]
  viability, T/C: 65.9%
[21]
  viability, T/C: 95.9%
[22]
  viability, T/C: 72.8%
[23]
  viability, T/C: 92.7%
[24]
  viability, T/C: 80%
[25]
  viability, T/C: 76.3%
[26]
  viability, T/C: 55%
[27]
  viability, T/C: 62.8%
[28]
  viability, T/C: 68.4%
[29]
  viability, T/C: 85.4%
[30]
  viability, T/C: 72.6%
[31]
  viability, T/C: 52.5%
[32]
  viability, T/C: 59.7%
[33]
  viability, T/C: 47.7%
[34]
  viability, T/C: 59.7%
[35]
  viability, T/C: 72%
[36]
  viability, T/C: 50.5%

## Cn1ncc(Cl)c1-c1cc(C(=O)NC(CN)Cc2cccc(F)c2)sc1Cl (stereo not given) + Cc1nc(NC(=O)N2CCCC2C(N)=O)sc1-c1ccnc(C(C)(C)C(F)(F)F)c1
Second compound 0.0316 µM
  IC50: 2.45 µM
Second compound 0.1 µM
  IC50: 2.05 µM
Second compound 0.316 µM
  IC50: 1.88 µM
Second compound 1 µM
  IC50: 1.59 µM
Second compound 3.16 µM
  IC50: 1.31 µM
Second compound 10 µM
  IC50: < 0.0316 µM
[1]
  viability, T/C: 88.2%
[2]
  viability, T/C: 84.3%
[3]
  viability, T/C: 89.2%
[4]
  viability, T/C: 70.5%
[5]
  viability, T/C: 44.7%
[6]
  viability, T/C: 37.2%
[7]
  viability, T/C: 84.4%
[8]
  viability, T/C: 81.7%
[9]
  viability, T/C: 97.5%
[10]
  viability, T/C: 69.5%
[11]
  viability, T/C: 41.3%
[12]
  viability, T/C: 34.8%
[13]
  viability, T/C: 71.4%
[14]
  viability, T/C: 65.6%
[15]
  viability, T/C: 64.6%
[16]
  viability, T/C: 63.7%
[17]
  viability, T/C: 39%
[18]
  viability, T/C: 26.9%
[19]
  viability, T/C: 71.7%
[20]
  viability, T/C: 80.9%
[21]
  viability, T/C: 57.3%
[22]
  viability, T/C: 63.7%
[23]
  viability, T/C: 31.2%
[24]
  viability, T/C: 24.9%
[25]
  viability, T/C: 66.7%
[26]
  viability, T/C: 64.4%
[27]
  viability, T/C: 72%
[28]
  viability, T/C: 56%
[29]
  viability, T/C: 27.6%
[30]
  viability, T/C: 18.1%
[31]
  viability, T/C: 49.4%
[32]
  viability, T/C: 44.7%
[33]
  viability, T/C: 46%
[34]
  viability, T/C: 41.7%
[35]
  viability, T/C: 23.8%
[36]
  viability, T/C: 15.1%

## Cn1nccc1Nc1nccc(-c2ccn(C(CO)c3ccc(Cl)c(F)c3)c(=O)c2)n1 (stereo not given) + Cc1nc(NC(=O)N2CCCC2C(N)=O)sc1-c1ccnc(C(C)(C)C(F)(F)F)c1
Second compound 0.0316 µM
  IC50: > 10 µM
Second compound 0.1 µM
  IC50: > 10 µM
Second compound 0.316 µM
  IC50: > 10 µM
Second compound 1 µM
  IC50: 8.05 µM
Second compound 3.16 µM
  IC50: 3.66 µM
Second compound 10 µM
  IC50: 1.6 µM
[1]
  viability, T/C: 113%
[2]
  viability, T/C: 105%
[3]
  viability, T/C: 119%
[4]
  viability, T/C: 101%
[5]
  viability, T/C: 79.5%
[6]
  viability, T/C: 77.2%
[7]
  viability, T/C: 137%
[8]
  viability, T/C: 98%
[9]
  viability, T/C: 97.2%
[10]
  viability, T/C: 79.8%
[11]
  viability, T/C: 75%
[12]
  viability, T/C: 71.8%
[13]
  viability, T/C: 99.6%
[14]
  viability, T/C: 92.8%
[15]
  viability, T/C: 91.3%
[16]
  viability, T/C: 72%
[17]
  viability, T/C: 82.2%
[18]
  viability, T/C: 67.4%
[19]
  viability, T/C: 101%
[20]
  viability, T/C: 85.9%
[21]
  viability, T/C: 84.5%
[22]
  viability, T/C: 68.8%
[23]
  viability, T/C: 77.8%
[24]
  viability, T/C: 42.1%
[25]
  viability, T/C: 65.8%
[26]
  viability, T/C: 78.8%
[27]
  viability, T/C: 74.6%
[28]
  viability, T/C: 90.4%
[29]
  viability, T/C: 56.6%
[30]
  viability, T/C: 4.78%
[31]
  viability, T/C: 68%
[32]
  viability, T/C: 55.8%
[33]
  viability, T/C: 67.1%
[34]
  viability, T/C: 72.4%
[35]
  viability, T/C: 26.9%
[36]
  viability, T/C: 5.35%
